Assay results as given in ChEMBL document CHEMBL5390227, “Development of QTMP: A promising anticancer agent through NP-Privileged Motif-Driven structural modulation” (Bioorg Med Chem, 2023).
Calls of active or inactive are those of the source. The rule behind the calls is not given here.

Tests used:
Capra hircus [1] = species: Capra hircus; assay: Inhibition of goat brain tubulin polymerization at 2 uM incubated for 10 mins followed by GTP addition and measured for 35 mins by spectrophotometric analysis relative to control; settings: time 45.0 min
[2] = Inhibition of goat brain tubulin polymerization incubated for 10 mins followed by GTP addition and measured for 35 mins by spectrophotometric analysis; assay type: tissue-based, Capra hircus
HeLa [3] = assay: Antiproliferative activity against human HeLa cells assessed as inhibition of cell growth at 25 nM measured after 24 hrs by SRB assay relative to control; assay type: functional
T47D = assay: Antiproliferative activity against human T47D cells assessed as reduction in cell growth by SRB assay; assay type: functional, cell-based
MCF7 = assay: Antiproliferative activity against human MCF7 cells assessed as reduction in cell growth by SRB assay; assay type: functional, cell-based
[4] = Selectivity index, ratio of IC50 for cytotoxicity against mouse L929 cells to IC50 for antiproliferative activity against mouse B16-F10 cells; assay type: toxicity, cell-based; settings: L929 cells versus B16-F10 cells, read-out: Ratio IC50
MDA-MB-231 = assay: Antiproliferative activity against human MDA-MB-231 cells assessed as reduction in cell growth by SRB assay; assay type: functional, cell-based
Capra hircus [5] = species: Capra hircus; assay: Inhibition of goat brain tubulin polymerization at 5 uM incubated for 10 mins followed by GTP addition and measured for 35 mins by spectrophotometric analysis relative to control; settings: time 45.0 min
A549 [6] = assay: Induction of cell cycle arrest in human A549 cells assessed as accumulation of cells at G2/M phase at 10 nM incubated for 12 hrs by propidium iodide/RNase-staining based flow cytometry analysis (reference value: 11 +/- 4%); assay type: functional
A549 [7] = assay: Induction of cell cycle arrest in human A549 cells assessed as accumulation of cells at S phase at 20 nM incubated for 12 hrs by propidium iodide/RNase-staining based flow cytometry analysis (reference value: 22 +/- 6%); assay type: functional
A549 [8] = assay: Induction of cell cycle arrest in human A549 cells assessed as accumulation of cells at G2/M phase at 20 nM incubated for 12 hrs by propidium iodide/RNase-staining based flow cytometry analysis (reference value: 11 +/- 4%); assay type: functional
B16-F10 = assay: Antiproliferative activity against mouse B16-F10 cells assessed as reduction in cell growth by SRB assay; assay type: functional, cell-based
Capra hircus [9] = species: Capra hircus; assay: Inhibition of goat brain tubulin polymerization at 1 uM incubated for 10 mins followed by GTP addition and measured for 35 mins by spectrophotometric analysis relative to control; assay type: tissue-based; settings: time 45.0 min
Capra hircus [10] = species: Capra hircus; assay: Inhibition of goat brain tubulin polymerization assessed as reduction in initial rate of tubulin polymerization incubated for 10 mins followed by GTP addition and measured for 35 mins by spectrophotometric analysis; assay type: tissue-based; settings: dose 2-6 µM, time 45.0 min
A549 [11] = assay: Cytotoxicity against human A549 cells assessed as proportion of live cells at 20 nM incubated for 24 hrs by PI-staining based flow cytometry analysis (reference value: 90.1 to 90.2%); assay type: functional
Capra hircus [12] = species: Capra hircus; assay: Inhibition of goat brain tubulin polymerization at 3 uM incubated for 10 mins followed by GTP addition and measured for 35 mins by spectrophotometric analysis relative to control; assay type: tissue-based; settings: time 45.0 min
Capra hircus [13] = species: Capra hircus; assay: Binding affinity to colchicine binding site of goat brain tubulin assessed as tubulin-compound complex fluorescence intensity at 10 uM preincubated with CA-4 for 30 mins followed by compound addition and measured after 30 mins by fluorescence based analysis
Tubulin (Homo sapiens) [14] = molecular target: T1, Tubulin (Homo sapiens) (UniProt P68371+Q9H4B7+P0DPH7+P68366+Q13509+Q71U36+P04350+Q3ZCM7+P07437+P68363+Q9BQE3+Q6PEY2+Q13885+Q9BVA1+Q9BUF5); assay: Inhibition of tubulin polymerization in human A549 cells assessed as induction of interphase microtubule disorganization at 20 nM measured after 24 hrs by Hoechst-33258 staining based immunofluorescence analysis; assay type: cell-based
Tubulin (Homo sapiens) [15] = molecular target: T1, Tubulin (Homo sapiens); assay: Inhibition of tubulin polymerization in human A549 cells assessed as induction of interphase microtubule disorganization at 10 nM measured after 24 hrs by Hoechst-33258 staining based immunofluorescence analysis; assay type: cell-based
Tubulin (Homo sapiens) [16] = molecular target: T1, Tubulin (Homo sapiens); assay: Inhibition of tubulin polymerization in human A549 cells assessed as reduction in fluorescence intensity of microtubules at 20 nM measured after 24 hrs by Hoechst-33258 staining based immunofluorescence analysis relative to control; assay type: cell-based
A549 [17] = assay: Induction of cell cycle arrest in human A549 cells assessed as accumulation of cells at G1 phase at 10 nM incubated for 12 hrs by propidium iodide/RNase-staining based flow cytometry analysis (reference value: 67 +/- 11%); assay type: functional
HeLa [18] = assay: Antiproliferative activity against human HeLa cells assessed as reduction in cell growth by SRB assay; assay type: functional, cell-based
[19] = Antiproliferative activity against human H357 cells assessed as reduction in cell growth by SRB assay; assay type: functional, cell-based
A549 [20] = assay: Cytotoxicity against human A549 cells assessed as proportion of dead cells at 20 nM incubated for 24 hrs by PI-staining based flow cytometry analysis (reference value: 9.8 to 9.9%); assay type: functional
A549 [21] = assay: Induction of cell cycle arrest in human A549 cells assessed as accumulation of cells at S phase at 10 nM incubated for 12 hrs by propidium iodide/RNase-staining based flow cytometry analysis (reference value: 22 +/- 6%); assay type: functional
Tubulin (Homo sapiens) [22] = molecular target: T1, Tubulin (Homo sapiens); assay: Inhibition of tubulin polymerization in human A549 cells assessed as reduction in fluorescence intensity of microtubules at 10 nM measured after 24 hrs by Hoechst-33258 staining based immunofluorescence analysis relative to control; assay type: cell-based
[23] = Cytotoxicity against mouse L929 cells assessed as reduction in cell growth by SRB assay; assay type: toxicity, cell-based
Capra hircus [24] = species: Capra hircus; assay: Binding affinity to colchicine binding site of goat brain tubulin assessed as tubulin-compound complex fluorescence intensity at 10 uM preincubated with podophyllotoxin for 30 mins followed by compound addition and measured after 30 mins by fluorescence based analysis
[25] = Aqueous stability of the compound in PBS assessed as absorbance at 40 uM measured at pH 7.2 after 20 days by spectrophotometer analysis; assay type: physicochemical; settings: time 20 day, read-out: Stability
Tubulin (Homo sapiens) [26] = molecular target: T1, Tubulin (Homo sapiens); assay: Inhibition of tubulin polymerization in human HeLa cells assessed as induction of mitotic microtubule depolymerization at 10 to 20 nM measured after 24 hrs by Hoechst-33258 staining based immunofluorescence analysis; assay type: cell-based; settings: dose 10-20 nM
A549 [27] = assay: Cytotoxicity against human A549 cells assessed as proportion of live cells at 10 nM incubated for 24 hrs by PI-staining based flow cytometry analysis (reference value: 90.1 to 90.2%); assay type: functional
A549 [28] = assay: Antiproliferative activity against human A549 cells assessed as reduction in cell growth by SRB assay; assay type: functional, cell-based
[29] = Binding affinity to goat brain tubulin assessed as increase in fluorescence intensity incubated for 30 mins by spectrofluorometric analysis; assay type: tissue-based, Capra hircus
A549 [30] = assay: Induction of cell cycle arrest in human A549 cells assessed as accumulation of cells at G1 phase at 20 nM incubated for 12 hrs by propidium iodide/RNase-staining based flow cytometry analysis (reference value: 67 +/- 11%); assay type: functional
Tubulin (Homo sapiens) [31] = molecular target: T1, Tubulin (Homo sapiens); assay: Inhibition of tubulin polymerization in human HeLa cells assessed as induction of interphase microtubule depolymerization at 10 to 20 nM measured after 24 hrs by Hoechst-33258 staining based immunofluorescence analysis; assay type: cell-based; settings: dose 10-20 nM
A549 [32] = assay: Cytotoxicity against human A549 cells assessed as proportion of dead cells at 10 nM incubated for 24 hrs by PI-staining based flow cytometry analysis (reference value: 9.8 to 9.9%); assay type: functional
Tubulin (Homo sapiens) [33] = molecular target: T1, Tubulin (Homo sapiens); assay: Inhibition of tubulin polymerization in human A549 cells assessed as induction of mitotic spindle microtubules depolymerization at 20 nM measured after 24 hrs by Hoechst-33258 staining based immunofluorescence analysis; assay type: cell-based
Capra hircus [34] = species: Capra hircus; assay: Inhibition of goat brain tubulin polymerization at 0.5 uM incubated for 10 mins followed by GTP addition and measured for 35 mins by spectrophotometric analysis relative to control; settings: time 45.0 min
[35] = Aqueous stability of the compound in PBS assessed as absorbance at 40 uM measured at pH 7.2 after 24 hrs by spectrophotometer analysis; assay type: physicochemical; settings: read-out: Stability

COc1cc(-c2nc(N)[nH]c2-c2ccc3ccccc3n2)cc(OC)c1OC gave an inhibition (Capra hircus [1]) of 28%, an IC50 [2] of 3400 nM and an inhibition at 0.025 µM (HeLa [3]) of 74%. It also gave an IC50 (T47D) of 47 nM, an IC50 (MCF7) of 20 nM and a selectivity ratio [4] of 2.76. The IC50 (MDA-MB-231) was 13 nM, the inhibition (Capra hircus [5]) was 75% and the Activity (A549 [6]) was 29%. It also gave an Activity (A549 [7]) of 19%, an Activity (A549 [8]) of 44% and an IC50 (B16-F10) of 25 nM. The inhibition (Capra hircus [9]) was 11%, the inhibition (Capra hircus [10]) was “Dose-Dependent Effect” and the Activity (A549 [11]) was 62.7%. The inhibition (Capra hircus [12]) was 45%, the Activity (Capra hircus [13]) was “inactive” and the inhibition (Tubulin (Homo sapiens) [14]) was “Active”. The inhibition (Tubulin (Homo sapiens) [15]) was “Active”, the inhibition (Tubulin (Homo sapiens) [16]) was 53.2% and the Activity (A549 [17]) was 51%. The IC50 (HeLa [18]) was 10 nM, the IC50 [19] was 15 nM and the Activity (A549 [20]) was 35.9%. It also gave an Activity (A549 [21]) of 20%, an inhibition (Tubulin (Homo sapiens) [22]) of 23.6% and an IC50 [23] of 69 nM. The Activity (Capra hircus [24]) was “inactive”, the remaining at 480 h, 40 µM [25] was 47% and the inhibition (Tubulin (Homo sapiens) [26]) was “Active”. The Activity (A549 [27]) was 76.7%, the IC50 (A549 [28]) was 12 nM and the Kd [29] was 5000 nM. The Activity (A549 [30]) was 37%, the inhibition (Tubulin (Homo sapiens) [31]) was “Active” and the Activity (A549 [32]) was 22%. For the same molecule, the inhibition (Tubulin (Homo sapiens) [33]) was “Active” and the inhibition (Capra hircus [34]) was 8%.

In the case of COc1ccc2ncc(-c3[nH]c(N)nc3-c3cc(OC)c(OC)c(OC)c3)cc2c1, the inhibition at 0.025 µM (HeLa [3]) is reported as 30%.

COc1cc(-c2nc(N)[nH]c2-c2ccc3nc(C)ccc3c2)cc(OC)c1OC gave an inhibition at 0.025 µM (HeLa [3]) of 5%.

For COc1cc(-c2nc(N)[nH]c2-c2ccnc3cc(Cl)ccc23)cc(OC)c1OC, the inhibition at 0.025 µM (HeLa [3]) was 11%.

With COc1cc(-c2nc(N)[nH]c2-c2cccc3ncccc23)cc(OC)c1OC the inhibition at 0.025 µM (HeLa [3]) was 27%.

In the case of COc1cc(-c2nc(N)[nH]c2-c2ccnc3ccccc23)cc(OC)c1OC, the inhibition at 0.025 µM (HeLa [3]) is reported as 7%.

Work on COc1cc(-c2nc(N)[nH]c2-c2cccc3cnccc23)cc(OC)c1OC yielded an inhibition at 0.025 µM (HeLa [3]) of 43%.

Work on COc1cc(-c2nc(N)[nH]c2-c2cncc3ccccc23)cc(OC)c1OC yielded an inhibition at 0.025 µM (HeLa [3]) of 47% and an IC50 (HeLa [18]) of 41 nM.

COc1cc(-c2nc(N)[nH]c2-c2ccc3ccccc3c2)cc(OC)c1OC gave an inhibition at 0.025 µM (HeLa [3]) of 34%.

COc1cc(-c2nc(N)[nH]c2-c2ccc3cnccc3c2)cc(OC)c1OC showed an inhibition at 0.025 µM (HeLa [3]) of 46% and an IC50 (HeLa [18]) of 46 nM.

For COc1cc(-c2nc(N)[nH]c2-c2cccc3cccnc23)cc(OC)c1OC, the inhibition at 0.025 µM (HeLa [3]) was 32%.

Molecule COc1cc(-c2nc(N)[nH]c2-c2cnc3ccc(C)cc3c2)cc(OC)c1OC has an inhibition at 0.025 µM (HeLa [3]) of 8%.

With COc1cc(-c2nc(N)[nH]c2-c2cnc3ccc(Cl)cc3c2)cc(OC)c1OC the inhibition at 0.025 µM (HeLa [3]) was 11%.

Molecule COc1ccc(/C=C\c2cc(OC)c(OC)c(OC)c2)cc1O [COMBRETASTATIN A4] has an inhibition at 0.025 µM (HeLa [3]) of 57%, an IC50 (T47D) of 407 nM and an IC50 (MCF7) of 24 nM. For the same molecule, the IC50 (MDA-MB-231) was 100 nM, the Activity (A549 [7]) was 18% and the Activity (A549 [8]) was 17%. It also gave an IC50 (B16-F10) of 82 nM, a remaining at 24 h, 40 µM [35] of 47% and an Activity (A549 [11]) of 90.4%. It also gave an IC50 (HeLa [18]) of 24 nM, an IC50 [19] of 3.5 nM and an Activity (A549 [20]) of 7.37%. The IC50 [23] was 117 nM, the IC50 (A549 [28]) was 43 nM and the Activity (A549 [30]) was 65%.

COc1cc(-c2nc(N)[nH]c2-c2ccc3ncccc3c2)cc(OC)c1OC showed an inhibition at 0.025 µM (HeLa [3]) of 9%.
